Results reported in ChEMBL document CHEMBL5614437, “Antibacterial and Anti-Inflammatory Activity of Branched Peptides Derived from Natural Host Defense Sequences” (J Med Chem, 2024).
The source made the active and inactive calls. The calls are words filed in the database; no cut-off is given here. Bridges are numbered along the chain shown (N, C = ends). Roman numbers before positions name the chains, in order.

Tests used:
Escherichia coli [1] = experiment: Antibacterial activity against Escherichia coli TG1 incubated for 12 hrs by microdilution method; type: functional
Erythrocyte [2] = experiment: Hemolytic activity in human RBC assessed as hemolysis at ~15 uM incubated for 2 hrs by absorbance based plate reader analysis; type: toxicity, cell-based
Cell membrane [3] = experiment: Induction of cytoplasmic membrane permeabilization in Escherichia coli TG1 assessed as increase in fluorescence at 2 times of MIC measured after 10 mins by PI/Sytox green dye based analysis; type: cell membranes
RAW264.7 [4] = experiment: Cytotoxicity against mouse RAW264.7 cells assessed as cell death at 1 log concentration incubated for 4 to 24 hrs by crystal violet staining based analysis relative to control; type: toxicity; conditions: time 4-24 hrs
Klebsiella pneumoniae [5] = experiment: Antibiofilm activity against 24 hrs preformed biofilm in Klebsiella pneumoniae ATCC43816 assessed as reduction in preformed biofilm incubated for 14 hrs by absorbance based analysis; type: functional
RAW264.7 [6] = experiment: Cytotoxicity against mouse RAW264.7 cells assessed as cell killing incubated for 4 to 24 hrs by crystal violet staining based analysis; type: toxicity; conditions: time 4-24 hrs
Klebsiella pneumoniae [7] = experiment: Antibacterial activity against colistin-resistant Klebsiella pneumoniae incubated for 12 hrs by microdilution method; type: functional
Cell membrane [8] = experiment: Induction of cytoplasmic membrane permeabilization in Escherichia coli TG1 assessed as enlargement of bacterial cells at 2 times of MIC measured after 30 to 60 mins by SEM analysis; type: cell membranes; conditions: time 30-60 min
Escherichia coli [9] = experiment: Antibiofilm activity against 24 hrs preformed biofilm in Escherichia coli TG1 assessed as reduction in preformed biofilm incubated for 14 hrs by absorbance based analysis; type: functional
[10] = Stability of compound in human serum at 180 uM measured after 4 hrs by HPLC-MS analysis; type: ADME, cell-free
Staphylococcus aureus = experiment: Antibacterial activity against Staphylococcus aureus USA300 incubated for 12 hrs by microdilution method; type: functional
Cell membrane [11] = experiment: Induction of cytoplasmic membrane permeabilization in Escherichia coli TG1 assessed as loss of surface smoothness at 2 times of MIC measured after 30 to 60 mins by SEM analysis; conditions: time 30-60 min
Enterococcus faecalis = experiment: Antibacterial activity against Enterococcus faecalis 51299 incubated for 12 hrs by microdilution method; type: functional
Pseudomonas aeruginosa [12] = experiment: Antibacterial activity against Pseudomonas aeruginosa ATCC 27853 incubated for 12 hrs by microdilution method; type: functional
Cell membrane [13] = experiment: Induction of cytoplasmic membrane permeabilization in Escherichia coli TG1 assessed as increase in fluorescence at MIC measured after 40 to 50 mins by PI/Sytox green dye based analysis; conditions: time 40-50 min
Cell membrane [14] = experiment: Induction of cytoplasmic membrane permeabilization in Escherichia coli TG1 assessed as wrinkling of membrane surface at 2 times of MIC measured after 30 to 60 mins by SEM analysis; conditions: time 30-60 min
Klebsiella pneumoniae [15] = experiment: Antibiofilm activity against Klebsiella pneumoniae ATCC43816 assessed as inhibition of biofilm formation incubated for 24 hrs by absorbance based analysis; type: functional
Lipopolysaccharide (LPS) = experiment: Binding affinity to biotin-tagged LPS (unknown origin) preincubated for 30 mins followed by compound addition and 30 mins of incubation with streptavidin-POD by ELISA based microplate spectrophotometer; type: subcellular; conditions: dose 1-10 µg/ml
Klebsiella pneumoniae [16] = experiment: Antibacterial activity against Klebsiella pneumoniae ATCC43816 incubated for 12 hrs by microdilution method; type: functional
Escherichia coli [17] = experiment: Antibiofilm activity against Escherichia coli TG1 assessed as inhibition of biofilm formation incubated for 24 hrs by absorbance based analysis; type: functional
Escherichia coli [18] = experiment: Antibacterial activity against Escherichia coli clinical isolate LC711/14 incubated for 12 hrs by microdilution method; type: functional
Cell membrane [19] = experiment: Induction of cytoplasmic membrane permeabilization in Escherichia coli TG1 assessed as increase in fluorescence incubated for 100 to 120 mins by PI/Sytox green dye based analysis; conditions: dose 1.5-3 µM, time 100-120 min
[20] = Stability of compound in human serum at 180 uM measured after 24 hrs by HPLC-MS analysis; type: ADME, cell-free
[21] = Selectivity ratio of biofilm prevention concentration for antibiofilm activity against Escherichia coli TG1 to MIC for antibacterial activity against Escherichia coli TG1; type: functional
Erythrocyte [22] = experiment: Hemolytic activity in human RBC assessed as hemolysis at 0.25 to 100 uM incubated for 2 hrs by absorbance based plate reader analysis; type: toxicity, cell-based; conditions: dose 0.25-100 µM
[23] = Selectivity ratio of MBIC80 for antibiofilm activity against preformed biofilm in Escherichia coli TG1 to MIC for antibacterial activity against Escherichia coli TG1; type: functional
Escherichia coli [24] = experiment: Antibacterial activity against Escherichia coli TG1 transfected with pGEN-luxCDABE plasmid infected in female BALB/C mouse model of skin infection assessed as reduction in bacterial burden at 16 mg/kg, SC pre-infected with bacteria for 2 hrs followed by compound administration and measured on day 2 by luminescence imaging analysis relative to control; type: functional; set-up: scale not given: the % may be the effect or the level left; conditions: time 2 day
Pseudomonas aeruginosa [25] = experiment: Antibacterial activity against Pseudomonas aeruginosa clinical isolate FI-29 expressing GES-5 beta-lactamase incubated for 12 hrs by microdilution method; type: functional
Enterococcus faecium = experiment: Antibacterial activity against vancomycin-resistant Enterococcus faecium clinical isolate FI-48 incubated for 12 hrs by microdilution method; type: functional
Mus musculus = experiment: Anti-inflammatory activity in female BALB/C skin infection mouse model infected with Escherichia coli TG1 transfected with pGEN-luxCDABE plasmid assessed as reduction in monocyte number in skin at 16 mg/kg, SC pre-infected with bacteria for 2 hrs followed by compound administration and measured after 3 days by DAPI staining based immunohistochemical analysis; type: functional, organism-based; conditions: time 3.0 day
Erythrocyte [26] = experiment: Hemolytic activity in human RBC assessed as hemolysis at 5 uM incubated for 2 hrs by absorbance based plate reader analysis; type: toxicity, cell-based
Escherichia coli [27] = experiment: Antibacterial activity against Escherichia coli TG1 transfected with pGEN-luxCDABE plasmid infected in female BALB/C mouse model of skin infection assessed as reduction in bacterial burden at 16 mg/kg, SC pre-infected with bacteria for 2 hrs followed by compound administration and measured after 2 to 3 days by luminescence imaging analysis; type: functional, organism-based; conditions: time 2-3 day
Pseudomonas aeruginosa [28] = experiment: Antibacterial activity against Pseudomonas aeruginosa clinical isolate FI-25 expressing VIM-1 metallo-beta-lactamase incubated for 12 hrs by microdilution method; type: functional
Cell membrane [29] = experiment: Disruption of outer membrane integrity in Escherichia coli TG1 assessed as formation of blisters outside the cell measured after 60 mins by TEM analysis; type: cell membranes
Cell membrane [30] = experiment: Disruption of outer membrane integrity in Escherichia coli TG1 assessed as loss of double layer integrity measured after 60 mins by TEM analysis

I: H-GRFKRFRKKLKK-NH2 / II: H-GRFKRFRKKLK / III: H-GRFKRFRKKL / IV: H-GRFKRFRKKL (amide I:11-IV:C, I:12-II:C, II:11-III:C)
MIC (Escherichia coli [1]): 6 µM | Activity (Erythrocyte [2]): Toxic | Activity (Cell membrane [3]): Active | Activity (RAW264.7 [4]): 100% | MBIC80 (Klebsiella pneumoniae [5]): 50 µM | LC50 (RAW264.7 [6]): 1.258 10^-5M | MIC (Klebsiella pneumoniae [7]): > 25 µM | Activity (Cell membrane [8]): Active | MBIC80 (Escherichia coli [9]): 50 µM | Stability [10]: Stable | MIC (Staphylococcus aureus): > 25 µM | Activity (Cell membrane [11]): Active | MIC (Enterococcus faecalis): > 25 µM | MIC (Pseudomonas aeruginosa [12]): 6 µM | Activity (Cell membrane [13]): Active | Activity (Cell membrane [14]): Active | IC20 (Klebsiella pneumoniae [15]): 50 µM | Activity (Lipopolysaccharide (LPS)): Dose-Dependent Effect | MIC (Klebsiella pneumoniae [16]): 25 µM | IC20 (Escherichia coli [17]): 25 µM | MIC (Escherichia coli [18]): > 25 µM | Activity (Cell membrane [19]): Dose-Dependent Effect | Stability [20]: Unstable | Selectivity ratio [21]: 4

I: H-KKLLGKNWKLMKK-NH2 / II: H-KKLLGKNWKLMK / III: H-KKLLGKNWKLM / IV: H-KKLLGKNWKLM (amide I:12-IV:C, I:13-II:C, II:12-III:C)
MIC (Escherichia coli [1]): 3 µM | Activity (Cell membrane [3]): Active | Activity (RAW264.7 [4]): 100% | MBIC80 (Klebsiella pneumoniae [5]): 50 µM | Activity (Erythrocyte [22]): Non-Toxic | LC50 (RAW264.7 [6]): 1 10^-5M | MIC (Klebsiella pneumoniae [7]): > 25 µM | Activity (Cell membrane [8]): Active | MBIC80 (Escherichia coli [9]): 25 µM | Stability [10]: Stable | MIC (Staphylococcus aureus): > 25 µM | Activity (Cell membrane [11]): Active | MIC (Enterococcus faecalis): > 25 µM | MIC (Pseudomonas aeruginosa [12]): 3 µM | Selectivity ratio [23]: 8 | Activity (Cell membrane [13]): Active | Activity (Cell membrane [14]): Active | Activity (Lipopolysaccharide (LPS)): Dose-Dependent Effect | MIC (Klebsiella pneumoniae [16]): 25 µM | MIC (Escherichia coli [18]): > 25 µM | Activity (Cell membrane [19]): Dose-Dependent Effect | Stability [20]: Stable

I: H-TLLKKVLKAAAKKK-NH2 / II: H-TLLKKVLKAAAKK / III: H-TLLKKVLKAAAK / IV: H-TLLKKVLKAAAK (amide I:13-IV:C, I:14-II:C, II:13-III:C)
MIC (Escherichia coli [1]): 1.5 µM | Activity (Escherichia coli [24]): 75% | MIC (Pseudomonas aeruginosa [25]): 12 µM | Activity (Cell membrane [3]): Active | MIC (Enterococcus faecium): 6 µM | Activity (RAW264.7 [4]): 100% | Activity (Mus musculus): Active | MBIC80 (Klebsiella pneumoniae [5]): 50 µM | LC50 (RAW264.7 [6]): 4.405 10^-7M | Activity (Erythrocyte [26]): Toxic | Activity (Escherichia coli [27]): Active | MIC (Klebsiella pneumoniae [7]): 6 µM | Activity (Cell membrane [8]): Active | MBIC80 (Escherichia coli [9]): 3 µM | Stability [10]: Stable | MIC (Staphylococcus aureus): > 25 µM | Activity (Cell membrane [11]): Active | MIC (Enterococcus faecalis): 25 µM | MIC (Pseudomonas aeruginosa [12]): 6 µM | MIC (Pseudomonas aeruginosa [28]): 12 µM | Activity (Cell membrane [13]): Active | Activity (Cell membrane [14]): Active | Activity (Cell membrane [29]): Active | IC20 (Klebsiella pneumoniae [15]): 50 µM | Activity (Lipopolysaccharide (LPS)): Dose-Dependent Effect | MIC (Klebsiella pneumoniae [16]): 6 µM | Activity (Cell membrane [30]): Active | IC20 (Escherichia coli [17]): 1.5 µM | MIC (Escherichia coli [18]): 3 µM | Activity (Cell membrane [19]): Dose-Dependent Effect | Stability [20]: Stable
